The values that follow come from US20220204497A1, “NOVEL COMPOUND HAVING ANTICANCER ACTIVITY, AND METHOD FOR PRODUCING SAME” (MEDICINAL BIOCONVERGENCE RESEARCH CENTER, priority 2019, published 2022).

Structures are written as SMILES.

The test system of one series is A549 cells. Kind of series: Cell viability by MTT method in A549 cells. The note with it: 72 hours treatment. On the set-up: concentration or dose not given beside the values. Format: cell-based. On the technique in general: Tetrazolium assays rely on reduction of a dye to a coloured formazan, in cell work by metabolically active cells.
Another series addresses T1, AIMP2-DX2 (Homo sapiens, UniProt Q13155).
T1 sequence (Q13155 1-251 isoform Q13155-2): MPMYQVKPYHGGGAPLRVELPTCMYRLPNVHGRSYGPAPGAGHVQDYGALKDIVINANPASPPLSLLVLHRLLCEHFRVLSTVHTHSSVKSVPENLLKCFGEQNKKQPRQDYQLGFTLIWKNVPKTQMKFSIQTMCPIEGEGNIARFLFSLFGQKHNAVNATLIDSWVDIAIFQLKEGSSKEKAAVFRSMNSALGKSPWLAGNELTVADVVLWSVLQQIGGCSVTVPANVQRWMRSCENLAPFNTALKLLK
In words: DX2-nanoluciferase assay (DX2 expression change) in transfected A549 cells. The following applies: inhibitory effect on AIMP2-DX2 expression; for inhibition at 40 µM: A549, 4 h, read-out: DX-Nanoluciferase activity (40 μM), 40 μM, 4 hours treatment, A549 cells transfected with nanoluciferase-DX2.

Method for AIMP2-DX2: After cloning DX2 into a plasmid expressing nanoluciferase, the plasmid was transfected into A549 cells. Transfected cells were seeded 1×10^4 per well in a 96-well plate and stabilized for 12 hours. […] Cell viability was measured by the MTT method after 72 hours of treatment with each concentration of the compound in A549 cells.

Take `CCOC(=O)C(Cc1c[nH]c2ccc(C(=O)O)cc12)NS(=O)(=O)c1ccc(C)cc1` (centres unmarked) [Compound 73, 3-(3-Ethoxy-2-(4-methylphenylsulfonamido)-3-oxopropyl)-1H-indole-5-carboxylic acid]: the “Cell Viability (% inhibition) (A549)” value in the series with A549 cells amounted to 4.32 ± 2.95%. Besides, at AIMP2-DX2, the inhibition at 40 µM is 44.2 ± 3.91%.
On to `Cc1ccc(S(=O)(=O)N[C@@H](Cc2cn(S(=O)(=O)c3ccc(C)cc3)cn2)C(=O)Nc2ccc(N3CCOCC3)cc2)cc1` [Compound 74, (S)-2-(4-Methylphenylsulfonamido)-N-(4-morpholinophenyl)-3-(1-tosyl-1H-Imidazol-4-yl)propanamide], for which the “Cell Viability (% inhibition) (A549)” value with A549 cells is recorded as 45.34 ± 4.64%. The inhibition at 40 µM at AIMP2-DX2 amounted to 56.2 ± 14.5%.
As to `Cc1ccc(S(=O)(=O)N[C@@H](Cc2c[nH]c3ccccc23)C(=O)Nc2ccc(N3C[C@@H](C)O[C@@H](C)C3)nc2)cc1` [Compound 75, (S)—N-(6-((2S,6R)-2,6-dimethylmorpholino)pyridin-3-yl)-3-(1H-indol-3-yl)-2-(4-methylphenylsulfonamido)propanamide], in the series on A549 cells, the “Cell Viability (% inhibition) (A549)” value was 79.58 ± 3.72%. For the same molecule, on AIMP2-DX2, the inhibition at 40 µM is 57.8 ± 8%.
For the molecule `Cc1ccc(S(=O)(=O)N[C@@H](Cc2c[nH]c3ccccc23)C(=O)Nc2ccc(N3CCOCC3)c(F)c2)cc1` [Compound 77, (S)—N-(3-fluoro-4-morpholinophenyl)-3-(1H-indol-3-yl)-2-(4-methylphenylsulfonamido)propanamide], the “Cell Viability (% inhibition) (A549)” value in the series with A549 cells was 80.59 ± 1.49%. Further, on AIMP2-DX2, the inhibition at 40 µM was found to be 23.9 ± 7.01%.
Turning to `O=C(Nc1ccc(N2CCOCC2)cc1)[C@H](Cc1c[nH]c2ccccc12)NS(=O)(=O)c1ccc([N+](=O)[O-])cc1` [Compound 78, (S)-3-(1H-indol-3-yl)-N-(4-morpholinophenyl)-2-(4-nitrophenylsulfonamido)propanamide], in the series on A549 cells, the “Cell Viability (% inhibition) (A549)” value was 67.08 ± 1.45%. The inhibition at 40 µM at AIMP2-DX2 was 44.5 ± 12.7%.
Take `O=C(Nc1ccc(N2CCOCC2)cc1)[C@H](Cc1c[nH]c2ccccc12)NS(=O)(=O)c1ccc(Br)cc1` [Compound 79, (S)-2-(4-Bromophenylsulfonamido)-3-(1H-indol-3-yl)-N-(4-morpholinophenyl)propanamide]: the “Cell Viability (% inhibition) (A549)” value in the series with A549 cells was found to be 78.31 ± 1.91%. Further, at AIMP2-DX2, the inhibition at 40 µM came out at 30.6 ± 15.3%.
As for `COc1ccc(S(=O)(=O)N[C@@H](Cc2c[nH]c3ccccc23)C(=O)Nc2ccc(N3CCOCC3)cc2)cc1` [Compound 80, (S)-3-(1H-indol-3-yl)-2-(4-methoxyphenylsulfonamido)-N-(4-morpholinophenyl)propanamide], in the series on A549 cells, the “Cell Viability (% inhibition) (A549)” value is recorded as 38.64 ± 1.03%. The inhibition at 40 µM at AIMP2-DX2 came out at 44.9 ± 13.3%.
`CC(C)c1ccc(S(=O)(=O)N[C@@H](Cc2c[nH]c3ccccc23)C(=O)Nc2ccc(N3CCOCC3)cc2)cc1` [Compound 81, (S)-3-(1 Indol-3-yl)-2-(4-isopropylphenylsulfonamido)-N-(4 morpholinophenyl)propanamide]: in the series on A549 cells, the “Cell Viability (% inhibition) (A549)” value is on record as 73.98 ± 0.39%. The “DX-Nanoluciferase activity (40 μM)” value on AIMP2-DX2 (40 μM, 4 hours treatment, A549 cells transfected with nanoluciferase-DX2) was 77.74 ± 6.75.
Regarding `COc1ccc(-c2csc(NC(=O)[C@H](Cc3c[nH]c4ccccc34)NS(=O)(=O)c3ccc(C(C)C)cc3)n2)cc1` [Compound 82, (S)-3-(1H-indol-3-yl)-2-(4-isopropylphenylsulfonamido)-N-(4-(4-methoxyphenyl)thiazol-2-yl)propanamide], in the series on A549 cells, the “Cell Viability (% inhibition) (A549)” value was 96.64 ± 0.09%. The inhibition at 40 µM at AIMP2-DX2 stood at 29.3 ± 2.7%.
Take `Cc1ccc(S(=O)(=O)N[C@@H](Cc2c[nH]c3ccccc23)C(=O)Nc2nc(C)cs2)cc1` [Compound 83, (S)-3-(1H-indol-3-yl)-2-(4-methylphenylsulfonamido)-N-(4-methylthiazol-2-yl)propanamide]: the “Cell Viability (% inhibition) (A549)” value in the series on A549 cells stood at 97.43 ± 2.01%. In addition, the inhibition at 40 µM at AIMP2-DX2 is 17.4 ± 3.23%.
For `Cc1ccc(S(=O)(=O)N[C@@H](Cc2c[nH]c3ccccc23)C(=O)Nc2nc3ccccc3s2)cc1` [Compound 84, (S)—N-(benzo[d]thiazol-2-yl)-3-(1H-indol-3-yl)-2-(4-methylphenylsulfonamido)propanamide], in the series on A549 cells, the “Cell Viability (% inhibition) (A549)” value was 20.93 ± 11.89%. Moreover, the inhibition at 40 µM on AIMP2-DX2 was -15.8 ± 6.29%.
The corresponding values for `O=C(O)[C@H](Cc1c[nH]c2ccccc12)NS(=O)(=O)c1ccc(Br)cc1` [Compound 85, (S)-2-(4-Bromophenylsulfonamido)-3-(1H-indol-3-yl)propanoic acid] are 10.28 ± 3.54% and 20.2 ± 1.65%.
Consider `Cc1ccc(S(=O)(=O)N[C@@H](CC(C)C)C(=O)Nc2ncc(N3CCOCC3)s2)cc1` [Compound 86, (S)-4-Methyl-2-(4-methylphenylsulfonamido)-N-(5-morpholinothiazol-2-yl)pentanamide], for which the “Cell Viability (% inhibition) (A549)” value in the series on A549 cells is 20.70 ± 1.43%. Besides, on AIMP2-DX2, the inhibition at 40 µM came to 37.7 ± 6.09%.
Regarding `COc1ccc(-c2nnc(NC(=O)[C@H](CC(C)C)NS(=O)(=O)c3ccc(C)cc3)s2)cc1` [Compound 87, (S)—N-(5-(4-methoxyphenyl)-1,3,4-thiadiazol-2-yl)-4-methyl-2-(4-methylphenylsulfonamido)pentanamide], the “Cell Viability (% inhibition) (A549)” value in the series with A549 cells is given as 36.61 ± 3.85%. The inhibition at 40 µM at AIMP2-DX2 worked out at 50.2 ± 7.05%.
`COc1ccc(-c2cc(NC(=O)[C@H](CC(C)C)NS(=O)(=O)c3ccc(C)cc3)no2)cc1` [Compound 88, (S)—N-(5-(4-methoxyphenyl)isoxazol-3-yl)-4-methyl-2-(4-methylphenylsulfonamido)pentanamide]: the “Cell Viability (% inhibition) (A549)” value in the series with A549 cells is reported as 46.96 ± 4.60%. The inhibition at 40 µM on AIMP2-DX2 came out at 57 ± 8.83%.
The corresponding values for `COc1ccc(-c2cc(NC(=O)[C@H](CC(C)C)NS(=O)(=O)c3ccc(C)cc3)on2)cc1` [Compound 89, (S)—N-(3-(4-methoxyphenyl)isoxazol-5-yl)-4-methyl-2-(4-methylphenylsulfonamido)pentanamide] are 98.73 ± 0.92% and 47.5 ± 13.3%.
Regarding `Cc1ccc(S(=O)(=O)N[C@@H](CC(C)C)C(=O)Nc2nc(-c3ccc(C(F)(F)F)cc3)cs2)cc1` [Compound 90, (S)-4-Methyl-2-(4-methylphenylsulfonamido)-N-(4-(4-(trifluoromethyl)phenyl)thiazol-2-yl)pentanamide], the “Cell Viability (% inhibition) (A549)” value with A549 cells was determined as 86.36 ± 0.64%. Also, the inhibition at 40 µM on AIMP2-DX2 turned out to be 65.4 ± 4.13%.
Consider `COc1ccc(-c2csc(NC(=O)[C@H](CC(C)C)NS(=O)(=O)c3ccc(C)cc3)n2)cc1OC` [Compound 91, (S)—N-(4-(3,4-dimethoxyphenyl)thiazol-2-yl)-4-methyl-2-(4-methylphenylsulfonamido)pentanamide], for which the “Cell Viability (% inhibition) (A549)” value in the series with A549 cells amounted to 87.36 ± 2.13%. Besides, the inhibition at 40 µM on AIMP2-DX2 worked out at 16.4 ± 8.65%.
On to `Cc1ccc(S(=O)(=O)N[C@@H](CC(C)C)C(=O)Nc2nc(-c3ccc(F)cc3Br)cs2)cc1` [Compound 92, (S)—N-(4-(2-bromo-4-fluorophenyl)thiazol-2-yl)-4-methyl-2-(4-methylphenylsulfonamido)pentanamide], for which the “Cell Viability (% inhibition) (A549)” value in the series with A549 cells was 100.05 ± 1.22%. For the same molecule, on AIMP2-DX2, the inhibition at 40 µM amounted to 31.5 ± 6.84%.
For the molecule `Cc1ccc(S(=O)(=O)N[C@@H](CC(C)C)C(=O)Oc2ccc(-c3csc(N)n3)cc2)cc1` [Compound 93, (S)-4-(2-Aminothiazol-4-yl)phenyl 4-methyl-2-(4-methylphenylsulfonamido)pentanoate], in the series on A549 cells, the “Cell Viability (% inhibition) (A549)” value amounted to 48.85 ± 9.03%. For the same molecule, the inhibition at 40 µM on AIMP2-DX2 worked out at 22.5 ± 3.96%.
Turning to `Cc1ccc(S(=O)(=O)N[C@@H](CC(C)C)C(=O)Nc2nc(-c3ccc(F)cc3)cs2)cc1` [Compound 94, (S)—N-(4-(4-fluorophenyl)thiazol-2-yl)-4-methyl-2-(4-methylphenylsulfonamido)pentanamide], the “Cell Viability (% inhibition) (A549)” value in the series with A549 cells was found to be 101.42 ± 0.79%. The inhibition at 40 µM on AIMP2-DX2 turned out to be 11.5 ± 7.25%.
As for `Cc1ccc(S(=O)(=O)N[C@@H](CC(C)C)C(=O)Nc2nc(-c3ccc(OC(F)(F)F)cc3)cs2)cc1` [Compound 95, (S)-4-Methyl-2-(4-methylphenylsulfonamido)-N-(4-(4-(trifluoromethoxy)phenyl)thiazol-2-yl)pentanamide], in the series on A549 cells, the “Cell Viability (% inhibition) (A549)” value is reported as 92.97 ± 0.09%. Further, at AIMP2-DX2, the inhibition at 40 µM came to 22.6 ± 5.29%.
Consider `Cc1ccc(S(=O)(=O)N[C@@H](CC(C)C)C(=O)Nc2nc(-c3ccc(O)cc3)cs2)cc1` [Compound 96, (S)—N-(4-(4-hydroxyphenyl)thiazol-2-yl)-4-methyl-2-(4-methylphenylsulfonamido)pentanamide], for which, in the series on A549 cells, the “Cell Viability (% inhibition) (A549)” value came out at 93.07 ± 5.89%. The inhibition at 40 µM at AIMP2-DX2 is 36.8 ± 9.16%.
`Cc1ccc(-c2csc(NC(=O)[C@H](CC(C)C)N(C)S(=O)(=O)c3ccccc3)n2)cc1` [Compound 97, (S)-4-Methyl-2-(methylphenylsulfonamido)-N-(4p-tolylthiazol-2-yl)pentanamide]: in the series on A549 cells, the “Cell Viability (% inhibition) (A549)” value came out at 67.10 ± 7.93%. In addition, the inhibition at 40 µM on AIMP2-DX2 came to 15.1 ± 2.59%.
The matching figures for `Cc1ccc(S(=O)(=O)N[C@@H](Cc2ccc(OS(=O)(=O)c3ccc(C)cc3)cc2)C(=O)Nc2ccc(N3CCOCC3)cc2)cc1` [Compound 101, (S)-4-(2-(4-Methylphenylsulfonamido)-3-(4-morpholinophenylamino)-3-oxopropyl)phenyl 4-methylbenzenesulfonate]: 35.10 ± 5.95% and 10.9 ± 4.88%.
